Assay results as given in US20260070899A1, “N-(2-(4-CYANOTHIAZOLIDIN-3-YL)-2-OXOETHYL)-QUINOLINE-4-CARBOXAMIDES” (AstraZeneca AB, priority 2022, published 2026).

Columns and labels:
[1] = Metabolic stability in human liver microsomes (HLM); type: in vitro ADME; details: n = 1 or average (n = 2-3)
Experimental: Metabolic stability in HLM was measured as described in J Comput Aided Mol Des 2015, 29, 795.

[2] = Caco-2 AB intrinsic permeability; type: in vitro ADME; details: human, A to B intrinsic, n = 1 or average (n = 2), read-out: Caco2 AB Intrinsic Papp
Experimental: Caco-2 cell permeability was measured as described in Mol Pharm 2017, 14, 1601.

[3] = Kinetic solubility; type: physicochemical; details: kinetic from dmso stock, n = 1 or average (n = 2-4)
Experimental: Kinetic solubility was measured as described in Comput Aided Mol Des 2015, 29, 795.

[4] = biological target: T1, hFAP (M39-A757) (Homo sapiens, UniProt Q12884); assay: biochemical;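 further: surface plasmon resonance direct binding to hFAP amine-coupled on a sensor chip, rising compound concentrations by single cycle kinetics, Kd from global fit of interaction models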
T1 sequence (Q12884 39-757): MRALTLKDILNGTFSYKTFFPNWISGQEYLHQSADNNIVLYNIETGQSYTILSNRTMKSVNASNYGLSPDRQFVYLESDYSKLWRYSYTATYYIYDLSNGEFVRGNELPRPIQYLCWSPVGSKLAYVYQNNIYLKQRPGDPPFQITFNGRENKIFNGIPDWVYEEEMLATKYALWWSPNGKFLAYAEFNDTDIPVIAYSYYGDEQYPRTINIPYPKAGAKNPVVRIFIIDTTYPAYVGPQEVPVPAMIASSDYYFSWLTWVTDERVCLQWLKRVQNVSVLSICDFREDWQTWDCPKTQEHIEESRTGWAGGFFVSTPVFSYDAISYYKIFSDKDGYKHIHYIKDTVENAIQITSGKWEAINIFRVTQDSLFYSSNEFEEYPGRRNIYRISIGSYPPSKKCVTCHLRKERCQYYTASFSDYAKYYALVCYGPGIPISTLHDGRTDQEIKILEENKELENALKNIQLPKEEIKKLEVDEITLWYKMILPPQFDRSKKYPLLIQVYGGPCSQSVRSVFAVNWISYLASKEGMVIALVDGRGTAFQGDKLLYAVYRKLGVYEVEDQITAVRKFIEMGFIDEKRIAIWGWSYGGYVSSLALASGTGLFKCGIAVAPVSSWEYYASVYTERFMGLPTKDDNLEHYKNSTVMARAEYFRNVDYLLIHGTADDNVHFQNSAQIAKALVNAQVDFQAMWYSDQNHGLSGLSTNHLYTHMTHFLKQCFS

[5] = biological target: T2, Prolyl endopeptidase, Prolyl Oligopeptidase (hPREP) (Homo sapiens, UniProt P48147); assay: biochemical
T2 sequence (P48147 1-710): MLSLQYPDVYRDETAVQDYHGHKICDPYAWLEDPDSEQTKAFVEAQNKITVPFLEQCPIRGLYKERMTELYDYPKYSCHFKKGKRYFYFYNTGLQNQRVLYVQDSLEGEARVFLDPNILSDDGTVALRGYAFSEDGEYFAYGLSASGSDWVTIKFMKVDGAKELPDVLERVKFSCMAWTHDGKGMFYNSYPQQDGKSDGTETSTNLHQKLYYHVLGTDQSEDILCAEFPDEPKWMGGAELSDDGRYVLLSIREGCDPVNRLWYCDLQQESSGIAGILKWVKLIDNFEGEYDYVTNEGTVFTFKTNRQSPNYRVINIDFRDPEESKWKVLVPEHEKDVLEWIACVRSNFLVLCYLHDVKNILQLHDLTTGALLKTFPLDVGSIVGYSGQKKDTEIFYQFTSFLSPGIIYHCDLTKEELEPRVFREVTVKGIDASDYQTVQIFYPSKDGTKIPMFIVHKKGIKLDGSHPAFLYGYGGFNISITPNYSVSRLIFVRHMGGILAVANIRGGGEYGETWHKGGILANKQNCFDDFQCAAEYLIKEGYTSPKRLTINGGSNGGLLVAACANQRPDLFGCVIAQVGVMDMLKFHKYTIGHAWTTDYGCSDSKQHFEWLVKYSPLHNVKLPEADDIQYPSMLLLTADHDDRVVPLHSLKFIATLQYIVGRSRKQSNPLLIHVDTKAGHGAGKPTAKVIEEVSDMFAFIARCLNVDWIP
Experimental: Compounds were tested in a biochemical inhibition assay using Prolyl endopeptidase, Prolyl Oligopeptidase (hPREP) enzyme at 0.6 nM FAC (R&D Systems, 4308-SE) and the substrate Z-Gly-Pro-amino-methylcoumarin (Bachem, I-1145) at 50 μM FAC. 384 Low volume black plates (Greiner #784076) were used. […] Plates were incubated for 15 min at rt in dark. 4 μL, 100 μM substrate solution (25 mM Tris HCl, 250 mM NaCl, 0.01% Triton X-100, 5 mM Glutathione, pH 7.5) was added to each well. Plates were centrifuged at 1000 rpm and incubated for 20 min at rt in dark. The plates were read on a PHERAstar® reader with excitation 340 nm and emission 460 nm. Data were analyzed in Genedata Screener®. IC50 values were determined by plotting % inhibition versus log compound concentration and using a one site dose response model.

[6] = tested on: Rat Hepatocytes (rHep); assay: Metabolic stability in rat hepatocytes (rHep); type: in vitro ADME; details: n = 1 or geometric mean (n = 2-3)
Experimental: Metabolic stability in rat hepatocytes was measured as described in J Comput Aided Mol Des 2015, 29, 795.

[7] = biological target: T3, human dipeptidylpeptidase 7 (hDPP7) (Homo sapiens, UniProt Q9UHL4); assay: hDPP7 inhibition assay; type: biochemical; details: hDPP7 15 nM, Ala-Pro-amino-methylcoumarin 5 μM; n = 1
T3 construct: purchased BPS Bioscience 80070
Experimental: Compounds were tested in a biochemical inhibition assay using human dipeptidylpeptidase 7 (hDPP7) enzyme at 15 nM FAC (BPS Bioscience, #80070) and the substrate Ala-Pro-amino-methylcoumarin (BPS Bioscience, #80305) at 5 μM FAC. The enzymatic reactions were conducted in duplicate at rt for 30 min in 50 μL DPP assay buffer (BPS Bioscience, #80300). Compound solutions (in DMSO) at 10 CR, 3 fold dilution series were prepared in assay buffer ten-fold higher than the final concentration, and 5 μL of the dilution was added to a 50 μL reaction so that the highest compound concentration was 100 μM FAC and the concentration of DMSO was 1% in all wells. The plates were read on a Tecan Infinite M1000 microplate reader with excitation 340 nm and emission 460 nm. Data were analyzed in Graph Pad Prism. […] Raw data signals were normalized using 1% DMSO as 0% control and no enzyme as 100% inhibitor control.

[8] = biological target: T4, human dipeptidylpeptidase 9 (hDPP9) (Homo sapiens, UniProt Q86TI2); assay: hDPP9 inhibition assay; type: biochemical; details: hDPP9 0.4 nM, Ala-Pro-amino-methylcoumarin 5 μM; n = 1
T4 construct: purchased BPS Bioscience 80090
Experimental: (§1) Compounds were tested in a biochemical inhibition assay using human dipeptidylpeptidase 9 (hDPP9) enzyme at 0.4 nM FAC (BPS Bioscience, #80090) and the substrate Ala-Pro-amino-methylcoumarin (BPS Bioscience #80305) at 5 μM FAC. The enzymatic reactions were conducted in duplicate at rt for 30 min in 50 μL DPP assay buffer (BPS Bioscience, #80300). Compound solutions (in DMSO) at 10 CR, 3 fold dilution series were prepared in assay buffer ten-fold higher than the final concentration, and 5 μL of the dilution was added to a 50 μL reaction so that the highest compound concentration was 100 μM FAC and the concentration of DMSO was 1% in all wells. The plates were read on a Tecan Infinite M1000 microplate reader with excitation 340 nm and emission 460 nm. Data were analyzed in Graph Pad Prism. […] Raw data signals were normalized using 1% DMSO as 0% control and no enzyme as 100% inhibitor control.

[9] = biological target: T5, human dipeptidylpeptidase 8 (hDPP8) (Homo sapiens, UniProt Q6V1X1); assay: hDPP8 inhibition assay; type: biochemical; details: hDPP8 1.5 nM, Ala-Pro-amino-methylcoumarin 5 μM; n = 1
T5 construct: purchased BPS Bioscience 80080
Experimental: as §1, with “8 (hDPP8)” for “9 (hDPP9)”, “1.5” for “0.4”, “#80080)” for “#80090)”

T4 sequence (Q86TI2 whole entry): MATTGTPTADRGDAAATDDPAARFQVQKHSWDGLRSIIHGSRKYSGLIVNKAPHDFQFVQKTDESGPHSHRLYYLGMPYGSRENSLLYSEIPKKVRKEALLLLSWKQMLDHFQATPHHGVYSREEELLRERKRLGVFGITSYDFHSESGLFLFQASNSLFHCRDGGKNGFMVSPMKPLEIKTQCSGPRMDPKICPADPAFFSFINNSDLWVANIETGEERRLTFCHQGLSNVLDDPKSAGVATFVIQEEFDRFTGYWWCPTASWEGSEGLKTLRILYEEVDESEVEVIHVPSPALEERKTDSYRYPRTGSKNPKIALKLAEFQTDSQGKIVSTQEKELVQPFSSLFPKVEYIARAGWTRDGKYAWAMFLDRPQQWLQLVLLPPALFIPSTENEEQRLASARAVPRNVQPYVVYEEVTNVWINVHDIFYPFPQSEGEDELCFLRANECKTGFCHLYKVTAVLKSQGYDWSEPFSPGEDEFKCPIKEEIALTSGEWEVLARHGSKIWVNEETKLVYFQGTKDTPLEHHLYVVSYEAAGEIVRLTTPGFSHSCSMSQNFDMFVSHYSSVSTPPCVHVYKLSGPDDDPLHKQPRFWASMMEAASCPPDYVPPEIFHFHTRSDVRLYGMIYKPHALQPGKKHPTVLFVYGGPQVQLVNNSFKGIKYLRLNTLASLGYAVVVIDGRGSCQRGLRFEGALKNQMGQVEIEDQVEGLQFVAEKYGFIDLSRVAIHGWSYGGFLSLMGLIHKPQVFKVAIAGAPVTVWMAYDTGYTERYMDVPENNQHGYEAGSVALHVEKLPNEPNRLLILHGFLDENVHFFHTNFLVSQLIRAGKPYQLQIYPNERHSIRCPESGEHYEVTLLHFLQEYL
T5 sequence (Q6V1X1 whole entry): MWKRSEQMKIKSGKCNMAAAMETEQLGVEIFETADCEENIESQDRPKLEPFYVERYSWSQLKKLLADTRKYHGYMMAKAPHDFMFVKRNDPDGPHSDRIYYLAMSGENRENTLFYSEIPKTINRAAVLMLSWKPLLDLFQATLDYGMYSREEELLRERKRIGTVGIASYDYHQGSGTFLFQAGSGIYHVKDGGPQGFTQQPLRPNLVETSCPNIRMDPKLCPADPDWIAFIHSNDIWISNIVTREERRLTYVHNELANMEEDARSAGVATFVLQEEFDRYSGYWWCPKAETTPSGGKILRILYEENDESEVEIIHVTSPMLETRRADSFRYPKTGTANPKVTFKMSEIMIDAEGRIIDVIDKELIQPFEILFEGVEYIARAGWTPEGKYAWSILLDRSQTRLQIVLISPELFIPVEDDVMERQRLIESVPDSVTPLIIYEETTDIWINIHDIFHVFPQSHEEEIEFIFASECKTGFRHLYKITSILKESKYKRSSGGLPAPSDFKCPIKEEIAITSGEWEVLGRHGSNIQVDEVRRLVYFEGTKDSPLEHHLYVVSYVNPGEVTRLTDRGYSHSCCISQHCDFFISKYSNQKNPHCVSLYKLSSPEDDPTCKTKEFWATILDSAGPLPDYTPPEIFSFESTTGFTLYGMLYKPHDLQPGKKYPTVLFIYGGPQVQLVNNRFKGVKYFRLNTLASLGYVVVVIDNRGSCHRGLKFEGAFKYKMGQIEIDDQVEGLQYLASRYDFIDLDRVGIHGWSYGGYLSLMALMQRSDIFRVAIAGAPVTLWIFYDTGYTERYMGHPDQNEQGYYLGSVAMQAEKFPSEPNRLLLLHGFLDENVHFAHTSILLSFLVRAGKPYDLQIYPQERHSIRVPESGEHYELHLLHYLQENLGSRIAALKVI

| microsomal CLint [1] | Papp A→B [2] | solubility [3] | Kd [4] | IC50 [5] | rHeps CLint [6] | IC50 [7] | IC50 [8] | IC50 [9] | Structure (SMILES) |
| --- | --- | --- | --- | --- | --- | --- | --- | --- | --- |
| < 3 µL/min/mg | 10 ×10⁻⁶ cm/s | > 1000 µM | 57 pM | 0.57 µM | <1 μL/min/1E6 | – | – | – | COCCOc1ccc2nccc(C(=O)NCC(=O)N3CSC[C@H]3C#N)c2c1 [Example 4, (R)—N-(2-(4-Cyanothiazolidin-3-yl)-2-oxoethyl)-6-(2-methoxyethoxy)quinoline-4-carboxamide] |
| – | – | – | – | 1.2 µM | – | > 100 µM | 2.9 µM | 6.4 µM | N#C[C@@H]1CSCN1C(=O)CNC(=O)c1ccnc2ccc(OC3CCOCC3)cc12 [Example 6, (R)—N-(2-(4-Cyanothiazolidin-3-yl)-2-oxoethyl)-6-((tetrahydro-2H-pyran-4-yl)oxy)quinoline-4-carboxamide] |
